A value given as a limit tells only on which side of the number the result lay.

One test concerns the target JAK2 (Homo sapiens (Human), UniProt O60674). The test is described as follows: Jak biochemical HTRF assay, JAK2. Conditions: recombinant purified GST-tagged catalytic domain, HTRF format. The source says:
(§1) Jak Biochemical HTRF Assay Protocol
(§2) Subsequent reagent additions employed an Agilent Bravo.
(TR-FRET usually uses a lanthanide donor and a delayed reading to cut background.)

The target of a further test is JAK1 (Homo sapiens (Human), UniProt P23458). In words: Jak biochemical HTRF assay, JAK1. Conditions: recombinant purified GST-tagged catalytic domain; HTRF format; [ATP] 31.8 μM.
Text: as §1, §2

JAK2, sequence (O60674 849-1124): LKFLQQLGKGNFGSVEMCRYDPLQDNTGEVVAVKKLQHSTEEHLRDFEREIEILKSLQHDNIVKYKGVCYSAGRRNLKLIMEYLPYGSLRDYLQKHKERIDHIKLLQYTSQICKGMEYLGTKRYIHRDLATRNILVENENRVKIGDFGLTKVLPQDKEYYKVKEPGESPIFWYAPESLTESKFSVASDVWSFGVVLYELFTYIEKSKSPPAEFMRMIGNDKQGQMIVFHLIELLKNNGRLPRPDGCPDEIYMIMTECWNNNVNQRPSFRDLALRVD
JAK1, sequence (P23458 875-1153): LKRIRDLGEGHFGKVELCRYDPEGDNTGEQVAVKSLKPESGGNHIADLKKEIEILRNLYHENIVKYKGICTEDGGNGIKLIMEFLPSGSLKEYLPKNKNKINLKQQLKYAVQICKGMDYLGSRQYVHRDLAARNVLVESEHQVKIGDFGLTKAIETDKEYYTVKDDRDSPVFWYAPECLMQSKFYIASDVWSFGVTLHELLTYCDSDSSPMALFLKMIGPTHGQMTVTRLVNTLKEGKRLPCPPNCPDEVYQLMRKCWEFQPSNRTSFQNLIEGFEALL

One may read the IC50 as the midpoint of a concentration-inhibition curve. Turning to `CC(C)COC(=O)N1CC[C@@H](C#N)C(n2cc(C(N)=O)c(Nc3ccc(F)cc3)n2)C1` (mixture of isomers) [Example 5-77, 2-methylpropyl (3S,4R and 3R,4S)-3-{4-carbamoyl-3-[(4-fluorophenyl)amino]-1H-pyrazol-1-yl}-4-cyanopiperidine-1-carboxylate], the values for the 50% inhibitory concentration (IC50) on JAK2 ([ATP] 8.5 μM) and at JAK1 were 76 nM and 4 nM, respectively.
The corresponding values for `N#C[C@@H]1CCN(Cc2ccon2)C[C@H]1n1cc(C(N)=O)c(Nc2ccc(F)cc2)n1` (racemic) [Example 6-3, 1-[(3S,4R and 3R,4S)-4-cyano-1-(isoxazol-3-ylmethyl)piperidin-3-yl]-3-[(4-fluorophenyl)amino]-1H-pyrazole-4-carboxamide] are 13 nM and 2 nM.
The matching figures for `CC1=NOC(CN2CC[C@@H](C#N)[C@H](n3cc(C(N)=O)c(Nc4ccc(F)cc4)n3)C2)C1` (mixture of isomers) [Example 6-20, 1-{(3S,4R and 3R,4S)-4-cyano-1-[(3-methyl-4,5-dihydroisoxazol-5-yI)methyl]piperidin-3-yl}-3-[(4-fluorophenyl)amino]-1H-pyrazole-4-carboxamide]: 98 nM and 6 nM.
The corresponding values for `CN(C)CC(C)(C)COC(=O)N1CC[C@@H](n2cc(C(N)=O)c(Nc3ccc(F)cc3)n2)[C@H](C#N)C1` (racemic) [Example 5-21, 3-(dimethylamino)-2,2-dimethylpropyl (3R,4R and 3S,4S)-4-{4-carbamoyl-3-[(4-fluorophenyl)amino]-1H-pyrazol-1-yl}-3-cyanopiperidine-1-carboxylate] are above 1500 nM and 88 nM.
As for `Cc1cc(CN2CC[C@@H](C#N)[C@H](n3cc(C(N)=O)c(Nc4ccc(F)cc4)n3)C2)no1` (racemic) [Example 6-14, 1-{(3S,4R and 3R,4S)-4-cyano-1-[(5-methylisoxazol-3-yl)methyl]piperidin-3-yl}-3-[(4-fluorophenyl)amino]-1H-pyrazole-4-carboxamide], the half-inhibitory concentration (IC50) on JAK2 ([ATP] 8.5 μM) came to 42 nM; on JAK1, 4 nM.
The corresponding values for `CCOC(=O)COC(=O)N1CC[C@@H](C#N)C(n2cc(C(N)=O)c(Nc3ccc(F)cc3)n2)C1` (mixture of isomers) [Example 5-84, 2-ethoxy-2-oxoethyl (3S,4R and 3R,4S)-3-{4-carbamoyl-3-[(4-fluorophenyl)amino]-1H-pyrazol-1-yl}-4-cyanopiperidine-1-carboxylate] are 187 nM and 6 nM.
`C[C@@]1(C#N)CS(=O)(=O)C[C@@H]1n1cc(C(N)=O)c(Nc2ccc(F)cc2)n1` (single isomer, unassigned) [Example 14-1, 1-((3R,4R or 3S,4S)-4-Cyano-4-methyl-1,1-dioxidotetrahydrothiophen-3-yl)-3-((4-fluorophenyl)amino)-1H-pyrazole-4-carboxamide]: the concentration for half-maximal inhibition (IC50) was found to be 18 nM on JAK2 ([ATP] […]) and 2 nM on JAK1.
On to `N#C[C@@H]1CN(C(=O)OCc2ccccc2)CC[C@H]1n1cc(C(N)=O)c(Nc2ccc(F)cc2)n1` (racemic) [Example 5-12, benzyl (3R,4R and 3S,4S)-4-{4-carbamoyl-3-[(4-fluorophenyl)amino]-1H-pyrazol-1-yl}-3-cyanopiperidine-1-carboxylate], for which, on JAK2 ([ATP] 8.5 μM), the IC50 is 369 nM.
On the same count and under the same terms, the same measure for `N#C[C@@H]1CN(Cc2ncco2)CC[C@H]1n1cc(C(N)=O)c(Nc2ccc(F)cc2)n1` (racemic) [Example 6-29, 1-[(3R,4R and 3S,4S)-3-cyano-1-(1,3-oxazol-2-ylmethyl)piperidin-4-yl]-3-[(4-fluorophenyl)amino]-1H-pyrazole-4-carboxamide]: 47 nM.
Same read-out and setting: under `N#C[C@@H]1CS(=O)(=O)CC1n1cc(C(N)=O)c(Nc2ccc(F)cc2)n1` (mixture of isomers) [Example 8-6, 1-((3S,4R and 3R,4S)-4-cyano-1,1-dioxidotetrahydrothiophen-3-yl)-3-((4-fluorophenyl)amino)-1H-pyrazole-4-carboxamide] stands 24 nM.
Still for that read-out and setting: the same measure for `CC(C)COC(=O)N1CC[C@@H](n2cc(C(N)=O)c(Nc3ccc(F)cc3)n2)[C@H](C#N)C1` (racemic) [Example 5-10, 2-methylpropyl (3R,4R and 3S,4S)-4-{4-carbamoyl-3-[(4-fluorophenyl)amino]-1H-pyrazol-1-yl}-3-cyanopiperidine-1-carboxylate]: 755 nM.
Take `CC(C)(C)OC(=O)N1CCC(n2cc(C(N)=O)c(Nc3ccc(F)cc3)n2)[C@H](C#N)C1` (mixture of isomers) [Example 2-2, (3R,4S and 3S,4R)-tert-butyl 4-(4-carbamoyl-3-((4-fluorophenyl)amino)-1H-pyrazol-1-yl)-3-cyanopiperidine-1-carboxylate]: the IC50 at JAK2 ([ATP] 8.5 μM) is 841 nM.
For `Cn1nccc1CN1CC[C@@H](n2cc(C(N)=O)c(Nc3ccc(F)cc3)n2)[C@H](C#N)C1` (mixture of isomers) [Example 6-32, 1-{(3R,4R and 3S,4S)-3-cyano-1-[(1-methyl-1H-pyrazol-5-yl)methyl]piperidin 4-yl}-3-[(4-fluorophenyl)amino]-1H-pyrazole-4-carboxamide], the IC50 on JAK2 ([ATP] […]) worked out at 35 nM.
Consider `CC1(COC(=O)N2CC[C@@H](n3cc(C(N)=O)c(Nc4ccc(F)cc4)n3)[C@H](C#N)C2)COC1` (racemic) [Example 5-33, (3-methyloxetan-3-yl)methyl (3R,4R and 3S,4S)-4-{4-carbamoyl-3-[(4-fluorophenyl)amino]-1H-pyrazol-1-yl}-3-cyanopiperidine-1-carboxylate], for which, on JAK2 ([ATP] 8.5 μM), the IC50 was 413 nM.
Turning to `N#C[C@H]1CCOC[C@@H]1n1cc(C(N)=O)c(Nc2ccc(Cl)nc2)n1` (single isomer, unassigned) [Example 9-27, 3-[(6-chloropyridin-3-yl)amino]-1-[(3R,4S or 3S,4R)-4-cyanotetrahydro-2H-pyran-3-yl]-1H-pyrazole-4-carboxamide], the half-maximal inhibitory concentration (IC50) at JAK2 ([ATP] 8.5 μM) was found to be 134 nM.
Same read-out and setting: under `N#C[C@@H]1CCOC[C@H]1n1cc(C(N)=O)c(Nc2ccc(Cl)nc2)n1` (single isomer, unassigned) [Example 9-28, 3-[(6-chloropyridin-3-yl)amino]-1-[(3S,4R or 3R,4S)-4-cyanotetrahydro-2H-pyran-3-yl]-1H-pyrazole-4-carboxamide] stands 4 nM; under `CC(C)(C)OC(=O)N1CCC(n2cc(C(N)=O)c(Nc3ccc(F)cc3)n2)[C@@H](C#N)C1` (mixture of isomers) [Example 2-3, (3S,4S and 3R,4R)-tert-butyl 4-(4-carbamoyl-3-((4-fluorophenyl)amino)-1H-pyrazol-1-yl)-3-cyanopiperidine-1-carboxylate], 367 nM.
For `N#C[C@@H]1CS(=O)(=O)C[C@H]1n1cc(C(N)=O)c(Nc2ccc(F)cc2)n1` (single isomer, unassigned) [Example 12-1, 1-((3S,4R or 3R,4S)-4-Cyano-1,1-dioxidotetrahydrothiophen-3-yl)-3-((4-fluorophenyl)amino)-1H-pyrazole-4-carboxamide], the IC50 on JAK2 ([ATP] […]) was above 1500 nM.
Turning to `CCn1ccnc1CN1CC[C@@H](C#N)[C@H](n2cc(C(N)=O)c(Nc3ccc(F)cc3)n2)C1` (racemic) [Example 6-19, 1-{(3S,4R and 3R,4S)-4-cyano-1-[(1-ethyl-1H-imidazol-2-yl)methyl]piperidin-3-yl}-3-[(4-fluorophenyl)amino]-1H-pyrazole-4-carboxamide], the half-maximal inhibitory concentration (IC50) on JAK2 ([ATP] 8.5 μM) was 11 nM.
Same read-out and setting: under `CC(C)COC(=O)N1CC[C@H](n2cc(C(N)=O)c(Nc3ccc(F)cc3)n2)[C@H](C#N)C1` (racemic) [Example 5-56, 2-methylpropyl (3R,4S and 3S,4R)-4-{4-carbamoyl-3-[(4-fluorophenyl)amino]-1H-pyrazol-1-yl}-3-cyanopiperidine-1-carboxylate] stands above 1500 nM; under `C#CCCOC(=O)N1CC[C@H](n2cc(C(N)=O)c(Nc3ccc(F)cc3)n2)[C@H](C#N)C1` (racemic) [Example 5-40, but-3-yn-1-yl (3R,4S and 3S,4R)-4-{4-carbamoyl-3-[(4-fluorophenyl)amino]-1H-pyrazol-1-yl}-3-cyanopiperidine-1-carboxylate], 1390 nM; under `CC(C)(C#N)COC(=O)N1CC[C@@H](C#N)C(n2cc(C(N)=O)c(Nc3ccc(F)cc3)n2)C1` (mixture of isomers) [Example 5-69, 2-Cyano-2-methylpropyl (3S,4R and 3R,4S)-3-{4-carbamoyl-3-[(4-fluorophenyl)amino]-1H-pyrazol-1-yl}-4-cyanopiperidine-1-carboxylate], 41 nM.
Turning to `N#C[C@@H]1CCN(CC2CCC2)C[C@H]1n1cc(C(N)=O)c(Nc2ccc(F)cc2)n1` (racemic) [Example 6-12, 1-[(3S,4R and 3R,4S)-4-cyano-1-(cyclobutylmethyl)piperidin-3-yl]-3-[(4-fluorophenyl)amino]-1H-pyrazole-4-carboxamide], at JAK2 ([ATP] 8.5 μM), the IC50 came out at 33 nM.
The same measure, in the same setting: under `CC1(COC(=O)N2CC[C@H](n3cc(C(N)=O)c(Nc4ccc(F)cc4)n3)[C@H](C#N)C2)COC1` (racemic) [Example 5-45, (3-methyloxetan-3-yl)methyl (3R,4S and 3S,4R)-4-{4-carbamoyl-3-[(4-fluorophenyl)amino]-1H-pyrazol-1-yl}-3-cyanopiperidine-1-carboxylate] stands above 1500 nM; under `N#C[C@H]1CCOC[C@@H]1n1cc(C(N)=O)c(Nc2ccc(C(F)F)nc2)n1` (single isomer, unassigned) [Example 9-32, 1-[(3R,4S or 3S,4R)-4-cyanotetrahydro-2H-pyran-3-yl]-3-{[6-(difluoromethyl)pyridin-3-yl]amino}-1H-pyrazole-4-carboxamide], 134 nM; under `CC1(COC(=O)N2CC[C@@H](C#N)C(n3cc(C(N)=O)c(Nc4ccc(F)cc4)n3)C2)COC1` (mixture of isomers) [Example 5-90, (3-methyloxetan-3-yl)methyl (3S,4R and 3R,4S)-3-{4-carbamoyl-3-[(4-fluorophenyl)amino]-1H-pyrazol-1-yl}-4-cyanopiperidine-1-carboxylate], 96 nM.

The values above are taken from patent US9394282B2, “Pyrazole carboxamides as Janus kinase inhibitors” (Merck Sharp & Dohme Corp., priority 2011, dated 2016).
